Assay results from article PMC6225485, “Computational screening of chalcones acting against topoisomerase IIα and their cytotoxicity towards cancer cell lines” (Journal of Enzyme Inhibition and Medicinal Chemistry, 2018).

Molecular target: T1, human topoisomerase IIα (rhTopoIIα ATPase domain) (Homo sapiens, UniProt P11388)
T1 construct: gene TOP2A; ATPase domain (45 kDa, recombinant, pET28b-hTopoIIα-ATPase)
Experiment: ADP-Glo ATPase assay with purified recombinant ATPase domain
Format: biochemical
Settings: read-out: IC50 against rhTopoIIα ATPase domain

T1 sequence (P11388 29-428 limits assumed): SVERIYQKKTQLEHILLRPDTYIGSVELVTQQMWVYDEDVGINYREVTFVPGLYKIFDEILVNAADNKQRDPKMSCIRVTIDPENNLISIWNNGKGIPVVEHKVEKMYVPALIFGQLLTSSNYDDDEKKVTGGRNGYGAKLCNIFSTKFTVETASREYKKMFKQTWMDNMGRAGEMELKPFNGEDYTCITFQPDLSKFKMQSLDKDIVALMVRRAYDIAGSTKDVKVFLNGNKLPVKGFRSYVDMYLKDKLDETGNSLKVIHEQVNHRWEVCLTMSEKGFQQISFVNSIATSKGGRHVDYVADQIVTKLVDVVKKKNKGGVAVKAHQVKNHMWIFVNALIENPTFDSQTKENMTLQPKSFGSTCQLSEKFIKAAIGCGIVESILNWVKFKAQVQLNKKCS

| IC50 [nM] | SMILES |
| --- | --- |
| 7.5 ± 4.2 | COc1cc(O)c(C(=O)/C=C/c2cc(OC)c(OC)c(OC)c2)c(OC)c1 [3d, chalcone 3d] |
| 326 ± 6.6 | Cc1ccc2c(c1CCC(O)C(C)(C)O)C(=O)C(=O)C(C(C)C)=C2 (centres unmarked) [Salvicine] |
